From PMC12257540, “From Inhibitors to PET: SAR-Based Development of [^18F]SK60 for mIDH1 Imaging” (Journal of Medicinal Chemistry, 2025)
“And” between values parts separate entries of the source, which are not always exact repeats. Equal values may be shown once.

How the values were obtained:
[1] = target: T1, IDH1R132H (Homo sapiens, UniProt O75874, R132H); experiment: Mutant IDH1 enzyme assay for determination of inhibitory potency (diaphorase/resazurin); assay type: biochemical; settings: recombinant IDH1R132H, 30 min preincubation, 60 min reaction
T1 construct: purchased BPS Bioscience BPS-79376
T1 sequence (O75874 whole entry R132H): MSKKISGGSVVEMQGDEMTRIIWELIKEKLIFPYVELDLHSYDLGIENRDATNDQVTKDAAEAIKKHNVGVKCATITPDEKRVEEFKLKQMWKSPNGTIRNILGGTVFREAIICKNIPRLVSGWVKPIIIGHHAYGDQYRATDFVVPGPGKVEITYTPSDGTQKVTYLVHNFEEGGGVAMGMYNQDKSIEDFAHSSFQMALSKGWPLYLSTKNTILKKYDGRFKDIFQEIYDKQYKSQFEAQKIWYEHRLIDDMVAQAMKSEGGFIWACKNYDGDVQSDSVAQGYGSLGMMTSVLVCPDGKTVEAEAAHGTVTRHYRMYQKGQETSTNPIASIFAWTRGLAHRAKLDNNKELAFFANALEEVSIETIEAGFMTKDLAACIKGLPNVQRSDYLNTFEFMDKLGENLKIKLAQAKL
Description: Determination of the activity and inhibition of mutant IDH1 recombinant protein, IDH1R132H, is based on the reduction of α-KG acid to D-2-HG accompanied by a concomitant oxidation of NADPH to NADP. The amount of NADPH remaining at the end of the reaction time is measured in a secondary diaphorase/resazurin reaction, in which the NADPH is consumed in a 1/1 molar ratio with the conversion of resazurin to the highly fluorescent resorufin. For the determination of the inhibitory potential of ligands, the IDH1R132H Assay Kit (BPS-79376, BPS Bioscience, San Diego, CA) was used. […] For inhibition assays, triplicate samples of the ligands in the concentration range from 10^–5 M to 10^–10 M were incubated with the enzyme for 30 min before the addition of α-KG and NADPH to initiate the reaction. The reaction ran for 60 min at room temperature and was terminated with the addition of 25 μL of detection buffer (36 μg/mL diaphorase and […] resazurin) to 50 μL of the reaction solution. The conversion of resazurin to resorufin by diaphorase was measured fluorometrically at Ex544/Em590 (Synergy H1 microplate reader, BioTek, Winooski, VT). The data were imported into GraphPad Prism 4.1 (GraphPad Inc.; La Jolla; CA), and the IC50 values were calculated with a standard dose–response curve fitting (Figure S2, SI).

[2] = target: T2, wtIDH1 (Homo sapiens, UniProt O75874); experiment: IDH1 enzyme assay for determination of inhibitory potency (diaphorase/resazurin); assay type: biochemical; settings: 1 h preincubation, 1 h reaction
T2 construct: purchased abcam ab113858
T2 sequence (O75874 whole entry): as the sequence (O75874 whole entry R132H) above, with H132R counted along it
Description: IDH1 enzyme assay is a modified version of the assay used for mIDH1. With the conversion of isocitrate to α-KG, this enzyme stoichiometrically converts NADP to NADPH. It produces NADPH, which directly couples to the diaphorase/resazurin system, and the resorufin production can be measured. The protocols for the determination of inhibition of IDH1 were performed as described by Wang et al. (2013). The IDH1 (ab113858) was purchased from abcam (Cambridge, UK).
Briefly, IDH1 assays were conducted in 50 μL buffer (20 mM TRIS buffer (pH = 7.5), 150 mM NaCl, 10 mM MgCl2, 0.05% BSA and 4 mM β-mercaptoethanol) containing 50 μM NADP, 70 μM DL-isocitrate, and 0.04 μg/mL IDH1 enzyme (reaction time 1 h at room temperature). For inhibition assays, triplicate samples of the ligands in the concentration range from 10^–4 M to 10^–10 M were incubated with the IDH1 for 1 h before the addition of DL-isocitrate and NADP to initiate the reaction together with the direct detection system comprised of 20 μg/mL diaphorase and 4 μM resazurin. The reaction was terminated with the addition of 25 μL of 2% SDS and read on a Synergy H1 microplate reader at Ex544/Em590. The data were imported into GraphPad Prism, and the IC50 values were calculated with a standard dose–response curve fitting (Figure S2, SI).

SMILES | IC50 [1] | IC50 [2] [µM]
CC1(C)CN(C(=O)c2ccc[nH]2)Cc2c(C(=O)Nc3ccccc3F)nn(Cc3ccc(F)cc3)c21 [Compound 27, 1-(4-fluorobenzyl)-N-(2-fluorophenyl)-7,7-dimethyl-5-(1H-pyrrole-2-carbonyl)-4,5,6,7-tetrahydro-1H-pyrazolo[4,3-c]pyridine-3-carboxamide] | 0.196 µM | –
CC1(C)CN(C(=O)c2ccc[nH]2)Cc2c(C(N)=O)nn(Cc3ccc(F)cc3)c21 [Compound 42] | 5.02 µM | > 10
CCCOCCNC(=O)c1nn(Cc2ccc(F)cc2)c2c1CN(C(=O)c1ccc[nH]1)CC2(C)C [Compound 39] | > 5 µM | > 10
CC1(C)CN(C(=O)c2ccc[nH]2)Cc2c(C(=O)Nc3ccccc3)nn(Cc3ccc(F)cc3)c21 [Compound 23, 1-(4-fluorobenzyl)-7,7-dimethyl-N-phenyl-5-(1H-pyrrole-2-carbonyl)-4,5,6,7-tetrahydro-1H-pyrazolo[4,3-c]pyridine-3-carboxamide] | 0.0247 µM and 0.064 µM | > 10
Cc1cccc(NC(=O)c2nn(Cc3ccc(F)cc3)c3c2CN(C(=O)C(C)(C)CF)CC3(C)C)c1 [Compound 60, 5-(3-fluoro-2,2-dimethylpropanoyl)-1-(4-fluorobenzyl)-7,7-dimethyl-N-(m-tolyl)-4,5,6,7-tetrahydro-1H-pyrazolo[4,3-c]pyridine-3-carboxamide] | 1.3 µM | –
CN(C)C(=O)c1nn(Cc2ccc(F)cc2)c2c1CN(C(=O)c1ccc[nH]1)CC2(C)C [Compound 41] | > 10 µM | > 10
Cc1cccc(NC(=O)c2nn(CCCCF)c3c2CN(C(=O)c2ccc[nH]2)CC3(C)C)c1 [Compound 47, 1-(4-fluorobutyl)-7,7-dimethyl-5-(1H-pyrrole-2-carbonyl)-N-(m-tolyl)-4,5,6,7-tetrahydro-1H-pyrazolo[4,3-c]pyridine-3-carboxamide] | 0.571 µM | > 10

The remaining lines, values ahead:

IC50 [1] | IC50 [2] [µM] | SMILES
> 10 µM | > 10 | CC1(C)CN(C(=O)c2ccc[nH]2)Cc2c(C(=O)N3CCOCC3)nn(Cc3ccc(F)cc3)c21 [Compound 37]
> 1 µM | > 10 | CC1(C)CN(C(=O)c2ccc[nH]2)Cc2c(C(=O)N3CCCCC3)nn(Cc3ccc(F)cc3)c21 [Compound 35]
0.631 µM and 0.648 µM | > 10 | CC1(C)CN(C(=O)c2ccc[nH]2)Cc2c(C(=O)Nc3cccnc3)nn(Cc3ccc(F)cc3)c21 [Compound 30, 1-(4-fluorobenzyl)-7,7-dimethyl-N-(pyridin-3-yl)-5-(1H-pyrrole-2-carbonyl)-4,5,6,7-tetrahydro-1H-pyrazolo[4,3-c]pyridine-3-carboxamide]
5.9 µM | > 10 | CC1(C)CN(C(=O)c2ccc[nH]2)Cc2c(C(=O)NC3CCCC3)nn(Cc3ccc(F)cc3)c21 [Compound 36]
0.163 ± 0.0396 µM | > 10 | CC1(C)CN(C(=O)c2ccc[nH]2)Cc2c(C(=O)NC34CC5CC(CC(C5)C3)C4)nn(Cc3ccc(F)cc3)c21 [Compound 33]
